Assay results reported in the supplement of paper PMC5303821, “Major sulfonate transporter Soa1 in Saccharomyces cerevisiae and considerable substrate diversity in its fungal family” (Nature Communications, 2017).

Assays:
Settings in all cases: sulfur source concentration 200 µM; S. cerevisiae S288C/BY sul1Δ sul2Δ soa1Δ with transporter ortholog inserted at SOA1 locus; sulfur-free B medium, 4% glucose, pH 6.5, sole sulfur source
[1] = test system: Ogataea parapolymorpha_XP_013935289; test: lag phase before growth; higher = slower start of growth
Description: (§1)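 S. cerevisiae sul1Δ sul2Δ soa1Δ strains expressing 20 fungal SOA1 orthologs (or no transporter, 'soa1 del') were grown in liquid sulfur-free B medium, 4% glucose, pH 6.5 (7 mM K2HPO4). The strains were sulfur-starved for 3 days beforehand. Each sulfur compound was the sole sulfur source at 200 µM (sulfate also at 40 mM). OD600 curves of duplicate cultures were averaged and fitted (logistic / Richards, GroFit) to give maximal growth rate, maximal density and lag phase; temperature not stated.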

[2] = test system: Saccharomyces uvarum_SOA2; test: as above
Description: as §1

[3] = test system: Saccharomyces cerevisiae_SOA1; test: as above
Description: as §1

[4] = test system: Saccharomyces eubayanus_SOA1; test: as above
Description: as §1

[5] = test system: Saccharomyces uvarum_SOA1; test: as above
Description: as §1

[6] = test system: Aspergillus nidulans_XP_660670; test: maximal culture density with compound as sole sulfur source (OD600); higher = better growth
Description: as §1

[7] = test system: Ogataea parapolymorpha_XP_013936897; test: as above
Description: as §1

[8] = test system: Aspergillus nidulans_CBF80346; test: as above
Description: as §1

[9] = test system: Ogataea parapolymorpha_XP_013935289; test: as above
Description: as §1

[10] = test system: Metarhizium robertsii_XP_007823832; test: as above
Description: as §1

[11] = test system: Aspergillus nidulans_XP_661733; test: as above
Description: as §1

[12] = test system: Aspergillus nidulans (IAM 2006)_astA; test: as above
Description: as §1

[13] = test system: Aspergillus nidulans_CBF74694; test: as above
Description: as §1

[14] = test system: Aspergillus nidulans_XP_681611; test: as above
Description: as §1

[15] = test system: Saccharomyces uvarum_SOA2; test: as above
Description: as §1

[16] = test system: Metarhizium robertsii_XP_007822519; test: as above
Description: as §1

[17] = test system: Saccharomyces cerevisiae_SOA1; test: as above
Description: as §1

[18] = test system: Saccharomyces eubayanus_SOA1; test: as above
Description: as §1

[19] = test system: Saccharomyces eubayanus_SOA2; test: as above
Description: as §1

[20] = test system: Metarhizium robertsii_XP_007821441; test: as above
Description: as §1

[21] = test system: Saccharomyces uvarum_SOA1; test: as above
Description: as §1

[22] = test system: Aspergillus nidulans_XP_660563; test: as above
Description: as §1

[23] = test system: Ogataea parapolymorpha_XP_013932458; test: as above
Description: as §1

soa1 del [24] = test: as above
Description: as §1

[25] = test system: Aspergillus nidulans_XP_661711; test: as above
Description: as §1

[26] = test system: Fusarium oxysporum_ENH65823; test: as above
Description: as §1

[27] = test system: Aspergillus nidulans_XP_660670; test: maximal growth rate with compound as sole sulfur source (OD600 per h); higher = better growth / uptake of the sulfur source
Description: as §1

[28] = test system: Ogataea parapolymorpha_XP_013936897; test: as above
Description: as §1

[29] = test system: Aspergillus nidulans (IAM 2006)_astA; test: as above
Description: as §1

[30] = test system: Aspergillus nidulans_XP_681611; test: as above
Description: as §1

[31] = test system: Metarhizium robertsii_XP_007822519; test: as above
Description: as §1

[32] = test system: Metarhizium robertsii_XP_007821441; test: as above
Description: as §1

[33] = test system: Ogataea parapolymorpha_XP_013932458; test: as above
Description: as §1

soa1 del [34] = test: as above
Description: as §1

[35] = test system: Aspergillus nidulans_XP_661711; test: as above
Description: as §1

[36] = test system: Fusarium oxysporum_ENH65823; test: as above
Description: as §1

[37] = test system: Metarhizium robertsii_XP_007822519; test: lag phase before growth; higher = slower start of growth
Description: as §1

Question: How did the “lag phase before growth” value [1] turn out when CCCCS(=O)(=O)O [Butanesulfonate] was run?
Answer: 6.98 h

Question: And the “lag phase before growth” value [2]?
Answer: 12.7 h

Question: And the “lag phase before growth” value [3]?
Answer: 9.34 h

Question: What about the “lag phase before growth” value [4] of the same molecule?
Answer: 9.71 h

Question: What about the “lag phase before growth” value [5] of the same molecule?
Answer: 8.4 h

Question: And the maximal culture density [6]?
Answer: 0.267

Question: And the maximal culture density [7]?
Answer: 0.323

Question: What about the maximal culture density [8] of the same molecule?
Answer: 0.26

Question: What about the maximal culture density [9] of the same molecule?
Answer: 1.6

Question: What about the maximal culture density [10] of the same molecule?
Answer: 0.604

Question: What about the maximal culture density [11] of the same molecule?
Answer: 0.279

Question: What about the maximal culture density [12] of the same molecule?
Answer: 0.596

Question: And the maximal culture density [13]?
Answer: 0.2

Question: What about the maximal culture density [14] of the same molecule?
Answer: 0.368

Question: What about the maximal culture density [15] of the same molecule?
Answer: 1.71

Question: What about the maximal culture density [16] of the same molecule?
Answer: 0.261

Question: What about the maximal culture density [17] of the same molecule?
Answer: 1.58

Question: What about the maximal culture density [18] of the same molecule?
Answer: 1.57

Question: And the maximal culture density [19]?
Answer: 1.69

Question: What about the maximal culture density [20] of the same molecule?
Answer: 0.246

Question: And the maximal culture density [21]?
Answer: 1.59

Question: What about the maximal culture density [22] of the same molecule?
Answer: 0.355

Question: And the maximal culture density [23]?
Answer: 0.274

Question: And the maximal culture density (soa1 del [24])?
Answer: 0.247

Question: And the maximal culture density [25]?
Answer: 0.267

Question: And the maximal culture density [26]?
Answer: 0.241

Question: And the maximal growth rate [27]?
Answer: 0.00393

Question: And the maximal growth rate [28]?
Answer: 0.0049

Question: What about the maximal growth rate [29] of the same molecule?
Answer: 0.0185

Question: What about the maximal growth rate [30] of the same molecule?
Answer: 0.00666

Question: And the maximal growth rate [31]?
Answer: 0.00366

Question: What about the maximal growth rate [32] of the same molecule?
Answer: 0.00375

Question: What about the maximal growth rate [33] of the same molecule?
Answer: 0.00411

Question: And the maximal growth rate (soa1 del [34])?
Answer: 0.00398

Question: And the maximal growth rate [35]?
Answer: 0.00392

Question: And the maximal growth rate [36]?
Answer: 0.00349

Question: With CCS(=O)(=O)O [Ethanesulfonate] as the molecule, how does the “lag phase before growth” value [1] read?
Answer: 8.69 h

Question: And the “lag phase before growth” value [2]?
Answer: 15.6 h

Question: And the “lag phase before growth” value [37]?
Answer: 7.36 h

Question: And the “lag phase before growth” value [3]?
Answer: 10.3 h

Question: And the “lag phase before growth” value [4]?
Answer: 9.96 h

Question: And the “lag phase before growth” value [5]?
Answer: 9.26 h

Question: What about the maximal culture density [6] of the same molecule?
Answer: 0.209

Question: What about the maximal culture density [7] of the same molecule?
Answer: 0.296

Question: And the maximal culture density [8]?
Answer: 0.22

Question: And the maximal culture density [9]?
Answer: 1.58

Question: What about the maximal culture density [10] of the same molecule?
Answer: 0.494

Question: And the maximal culture density [11]?
Answer: 0.238

Question: And the maximal culture density [12]?
Answer: 0.477

Question: What about the maximal culture density [13] of the same molecule?
Answer: 0.182

Question: What about the maximal culture density [14] of the same molecule?
Answer: 0.319

Question: What about the maximal culture density [15] of the same molecule?
Answer: 1.76

Question: And the maximal culture density [16]?
Answer: 1.6

Question: And the maximal culture density [17]?
Answer: 1.58

Question: And the maximal culture density [18]?
Answer: 1.58

Question: And the maximal culture density [19]?
Answer: 1.75

Question: What about the maximal culture density [20] of the same molecule?
Answer: 0.214

Question: And the maximal culture density [21]?
Answer: 1.59

Question: What about the maximal culture density [22] of the same molecule?
Answer: 0.314

Question: And the maximal culture density [23]?
Answer: 0.237

Question: What about the maximal culture density (soa1 del [24]) of the same molecule?
Answer: 0.215

Question: And the maximal culture density [25]?
Answer: 0.209

Question: And the maximal culture density [26]?
Answer: 0.197

Question: And the maximal growth rate [27]?
Answer: 0.0037

Question: What about the maximal growth rate [28] of the same molecule?
Answer: 0.00513

Question: What about the maximal growth rate [29] of the same molecule?
Answer: 0.0175

Question: What about the maximal growth rate [30] of the same molecule?
Answer: 0.00641

Question: What about the maximal growth rate [31] of the same molecule?
Answer: 0.0594

Question: What about the maximal growth rate [32] of the same molecule?
Answer: 0.00304

Question: What about the maximal growth rate [33] of the same molecule?
Answer: 0.00424

Question: And the maximal growth rate (soa1 del [34])?
Answer: 0.00466

Question: What about the maximal growth rate [35] of the same molecule?
Answer: 0.00368

Question: What about the maximal growth rate [36] of the same molecule?
Answer: 0.00347
